# Laboratory results reported in patent US5721231A, “Thienotriazolodiazepine compound and pharmaceutical use thereof” (Yoshitomi Pharmaceutical Industries, Ltd., priority 1993, dated 1998).
# Assays:
# [1] = system: VCAM-1 expression in HUVECs; test: Inhibitory effect on expression of VCAM-1 in human umbilical vein-derived endothelial cells (HUVECs); assay type: cell-based
# Procedure: HUVECs were suspended in 199 medium (Biocell Laboratories, Inc., Rancho Dominguez, Calif. USA) containing 20% fetal calf serum, 20 μg/ml endothelial cell growth factor derived from bovine brain and 100 μg/ml heparin, plated into 96-well microculture plates coated with collagen, and cultured at 37° C. in 5% CO2. When cells were grown to confluence, the cells received tumor necrosis factor-α (100 U/ml) and the test compound A, and cultured for 5 hours. After the cells were washed once with 199 medium, mouse anti-human VCAM-1 monoclonal antibody (2 μg/ml) was added, and the cells were incubated for 1 hour at room temperature. After the cells were washed twice, peroxidase-conjugated anti-mouse immunoglobulin antibody was added, and the cells were incubated for 1 hour at room temperature. After the cells were washed 3 times, a substrate for peroxidase, 2,2'-azino-bis(3-ethylbenzothiazolone-6-sulfonicacid), was added. After the plates were stood for 15 minutes at room temperature, absorbance at 405 nm with a reference wave length of 490 nm was measured with a 96-well microplate reader and was regarded as an indicator of VCAM-1 expression.
# [2] = system: Oxazolone-induced ear edema in mice; test: Oxazolone-induced ear edema in mice (intradermal administration, Experimental Example 2); assay type: in vivo, mouse
# Procedure: […] On day 7, 5 μl of oxazolone solution was applied to each surface of the right ear. After 24 hours (day 8), the right and left ears were cut out with a puncher of 6 mm in diameter and weighed with an electronic reading balance. The difference in weight between the oxazolone-treated ear (right) and untreated ear (left) was taken to reflect the degree of ear edema. Compound A was dissolved in 20% 2-hydroxypropyl-β-cyclodextrinsolution containing 1% dimethyl sulfoxide and injected intradermally into the mouse right ear (25 μl/site) on day 7 (immediately before application of oxazolone).
# [3] = system: Picryl chloride-induced ear edema in mice; test: Picryl chloride-induced ear edema in mice (Experimental Example 3); assay type: in vivo, mouse; conditions: cyclophosphamide +, 10 μl/site intradermal, control 10.8 ± 1.3
# Procedure: Cyclophosphamide (150 mg/kg) was administered subcutaneously to mice on day -2. The mice were sensitized twice by applying 50 μl of picryl chloride solution (70 mg/ml in ethanol) to their shaved abdomen on days 0 and 1. On day 13, 10 μl of picryl chloride solution (10 mg/ml in ethanol) was applied to each surface of the right ear. Two days later (on day 15), the right and left ears were cut out with a puncher of 6 mm in diameter and weighed with an electronic reading balance. The difference in weight between the treated (right) ear and the untreated (left) ear was taken as an indicator of edema. […] […] The group treated with cyclophosphamide and picryl chloride was taken as a control, and statistical significance was evaluated by Dunnett's test.
# [4] = system: TDI-induced rhinitis in guinea pig; test: Tolylene 2,4-diisocyanate (TDI)-induced rhinitis in guinea pig (Experimental Example 4); assay type: in vivo; conditions: for Number of leukocytes, mean ± S.D.: sensitized, control 20.0 ± 2.04, p < 0.01
# Procedure: Guinea pigs (three to six per group) were sensitized by applying a mixture of TDI and ethyl acetate (1:7) with cotton buds to both of their nasal cavities under anesthetization with diethyl ether on days 0 to 3 and days 7 to 10. On days 27, 29, 31 and 35, the reaction of the guinea pigs was challenged by applying the same mixture to the nasal cavities in a similar manner as described above. Three hours after the last challenge, the guinea pigs were anesthetized with pentobarbital (30 mg/kg, i.p.), and the nasal cavities were washed with physiological saline. Number of leukocytes in the fluid obtained above was counted with an automatic blood cell counter. Compound A (0.1, 1 or 10 μg/20 μl/site×2/guinea pig) was dissolved in 20% hydroxypropyl-β-cyclodextrin solution containing 1% dimethyl sulfoxide and injected into the both nasal cavities of guinea pigs 1 hour before the last challenge (on day 35).
# [5] = system: Antigen (egg albumin)-induced eosinotaxis in lung of guinea pigs; test: Inhibitory effect on topical eosinotaxis in lung induced by antigen (Experimental Example 5); assay type: in vivo, guinea pig (male Hartley)
# Procedure: Male Hartley guinea pigs (4 weeks old, Japan SLC) were bred under the homoiothermal (23±2° C.) and homohumidity (55±5%) conditions.
# Compound A was dissolved in 20% 2-hydroxypropyl-β-cyclodextrin containing 1% dimethyl sulfoxide to a concentration of 0.01%.
# Antigen (egg albumin, Sigma, 10 mg/ml in saline) was nebulized on guinea pigs for 10 minutes with an ultrasonic nebulizer (NE-U12, OMRON CORPORATION). One week later, the antigen was nebulized again in the same manner.
# At one week after the second antigen inhalation, mepyramine (Sigma, 10 mg/ml in saline) was intraperitoneally administered by 1 ml/kg. Twenty minutes later, a solution of Compound A (0.01%) or the medium (control) was nebulized for 10 minutes with a jet nebulizer (Nippon Shoji, Ltd.). Immediately thereafter, the antigen (egg albumin, 10 mg/ml) was nebulized for 5 minutes with an ultrasonic nebulizer. Five hours later, the solution of Compound A (0.01%) or the medium was nebulized again for 10 minutes with a jet nebulizer. […] At 24 hours after the antigen nebulizing, the lung was washed three times with physiological saline (10 ml, 37° C.), and the total number of the cells in the collected lung washings was counted by a colter counter (MEK 4200, Nippon Koden). […] The number of eosinophils was calculated from the ratio of existing cells and the total cell number.
# [6] = system: CD11b expression in U937 cells; test: Effect on CD11b expression in human histiocytic leukemia cell line U937; assay type: cell-based; conditions: U-937, 72 h, PDB 10 ng/ml, 3 days, read-out: Inhibitory effect on CD11b expression (IC50)
# Procedure: Effect on the expression of CD11b antigen, which constitutes the a chain of Mac-1, one of the adhesion molecules expressed on the surface of leukocytic cells, was investigated. U937 cells were suspended in RPMI1640 medium containing 20% fetal calf serum, plated with phorbol 12,13-dibutyrate (PDB, 10 ng/ml) and Compound A or Compound B into 96-well filtration plates (30,000 cells/well), and cultured for 3 days at 37° C. in 5% CO2. After the cells were washed once with RPMI1640 medium, rat anti-human CD11b monoclonal antibody (2 μg/ml) was added and the plates were kept for 1 hour on ice. After the cells were washed twice, peroxidase-conjugated anti-rat immunoglobulin antibody (1 μg/ml) was added, and the cells were kept for 1 hour on ice. After the cells were washed 3 times, o-phenylenediamine was added as a substrate for peroxidase. The plates were allowed to stand for 15 minutes at room temperature, and absorbance at 490 nm was measured with a 96-well plate reader. The absorbance was regarded as an indicator of CD11b antigen expression.
# [7] = system: Adhesion of guinea pig peritoneal cells to HUVECs; test: Cell adhesion of guinea pig peritoneal cells to human umbilical vein-derived endothelial cells (HUVECs); assay type: cell-based
# Procedure: HUVECs were suspended in 199 medium containing 20% fetal calf serum, 20 μg/ml endothelial cell growth factor derived from bovine brain and 100 μg/ml heparin, plated into 96-well microculture plates coated with collagen, and cultured at 37° C. in 5% CO2. When cells were grown to confluence, interleukin 1 (10 U/ml) was added, and the cells were cultured for 24 hours. After the cells were washed once with 199 medium, leukotriene B4 (1 μM), Compound A and guinea pig peritoneal cells [300,000 cells/well, obtained by intraperitoneally injecting 0.1% oyster glycogen (25 ml) and recovering 5 hours later] were added, and the cells were incubated for 30 minutes at 37° C. in 5% CO2. After nonadherent cells were removed by inverting the plates, rose bengal solution (0.25% in phosphate-buffered physiological saline) was added and the plates were kept still for 5 minutes. The cells were washed twice with 199 medium. Ethanol (50% in phosphate-buffered physiological saline) was added (200 μl/well) and the cells were kept still for 30 minutes to allow the leakage of rose bengal dye incorporated into the cells. Absorbance at 520 nm was measured with a 96-well plate reader and the value obtained by subtracting absorbance of the well Containing HUVECs alone was taken as an indicator of cell adhesion.
# [8] = system: Oxazolone-induced ear edema in mice; test: Oxazolone-induced ear edema in mice (oral administration, Experimental Example 8); assay type: in vivo, mouse; conditions: for Ear edema (right ear-left ear), mean ± S.D.: sensitized, days 0 to 8, control 17.6 ± 1.1, p < 0.01
# Procedure: Mice were sensitized by applying 50 μl of oxazolone solution (50 mg/ml in acetone) to their shaved abdomen on day 0. On day 7, 5 μl of oxazolone was applied to each surface of the right ear. After 24 hours, the right and left ears were cut out with a puncher of 6 mm in diameter and weighed with an electronic reading balance. The difference in weight between the treated ear (right) and untreated ear (left) was taken to reflect the degree of ear edema. Compound A was suspended in 0.5% methylcellulose solution and administered orally (0.1 ml/10 g body weight) on days 0 to 8.
compound,measurement,setting,value
"COc1ccccc1NC(=O)NC1N=C(c2ccc(Cl)cc2)c2c(sc(C)c2C)-n2c(C)nnc21 (racemic) [Compound A, N-(4-(4-chlorophenyl)-2,3,9-trimethyl-6H-thieno[3,2-f][1,2,4]triazolo[4,3-a][1,4]diazepin-6-yl)-N'-(2-methoxyphenyl)urea]",Inhibition of expression of VCAM-1 on HUVEC (in words),[1],inhibited expression of VCAM-1 on HUVEC in a concentration-dependent manner
same,inhibition at 1 pM,"[1]; Homo sapiens, HUVEC, Compound A 1 pM, TNF-α 100 U/ml, 5 hours",19.7%
same,inhibition at 10 pM,"[1]; Homo sapiens, HUVEC, Compound A 10 pM, TNF-α 100 U/ml, 5 hours",67.1%
same,inhibition at 0.0001 µM,"[1]; Homo sapiens, HUVEC, Compound A 100 pM, TNF-α 100 U/ml, 5 hours",82.3%
same,inhibition at 0.001 µM,"[1]; Homo sapiens, HUVEC, Compound A 1000 pM, TNF-α 100 U/ml, 5 hours",80.8%
same,Inhibition of ear edema (in words),[2]; intradermal administration,inhibited ear edema in sensitized or unsensitized mice in a dose-dependent manner
same,"Ear edema (right ear-left ear), mean ± S.D.","[2]; sensitized, 1 μg/site intradermal, control 16.8 ± 0.7, p < 0.01",15.0 ± 0.6 mg
same,"Ear edema (right ear-left ear), mean ± S.D.","[2]; sensitized, 10 μg/site intradermal, control 16.8 ± 0.7, p < 0.01",13.3 ± 0.7 mg
same,"Ear edema (right ear-left ear), mean ± S.D.","[2]; unsensitized, 1 μg/site intradermal, control 7.7 ± 1.6, p < 0.05",5.7 ± 1.1 mg
same,"Ear edema (right ear-left ear), mean ± S.D.","[2]; unsensitized, 10 μg/site intradermal, control 7.7 ± 1.6, p < 0.05",5.3 ± 0.7 mg
same,"Ear edema (right ear-left ear), mean ± S.D.",[3],7.8 ± 0.4 mg
same,Inhibition of leukocyte infiltration (in words),[4]; administration into the nasal cavity,inhibited the leukocyte infiltration in TDI-induced guinea pig rhinitis dose-dependently
same,"Number of leukocytes, mean ± S.D.",[4]; 0.1 μg/site into nasal cavities,12.7 ± 1.41 ×100 cells/μl
same,"Number of leukocytes, mean ± S.D.",[4]; 1 μg/site into nasal cavities,7.1 ± 1.19 ×100 cells/μl
same,"Number of leukocytes, mean ± S.D.",[4]; 10 μg/site into nasal cavities,2.8 ± 0.17 ×100 cells/μl
same,Number of eosinophils (×10^6),"[5]; 0.01% solution nebulized, lung washings 24 hours after antigen, control 20.7 ± 2.95, p < 0.05",8.9 ± 3.7 ×10^6
same,Eosinophil in lung washings (in words),"[5]; inhalation, 0.01%",significant decrease in eosinophil in lung washings
same,IC50,[6],250 nM
same,Inhibition of adhesion of guinea pig peritoneal cells (in words),[7],inhibited adhesion of guinea pig peritoneal cells to vascular endothelial cells in a concentration-dependent manner
same,inhibition at 0.01 µM,"[7]; Cavia porcellus, HUVEC, Compound A 0.01 μM, leukotriene B4 1 μM",-4.7%
same,inhibition at 0.1 µM,"[7]; Cavia porcellus, HUVEC, Compound A 0.1 μM, leukotriene B4 1 μM",32.6%
same,inhibition at 1 µM,"[7]; Cavia porcellus, HUVEC, Compound A 1 μM, leukotriene B4 1 μM",95.5%
same,inhibition at 10 µM,"[7]; Cavia porcellus, HUVEC, Compound A 10 μM, leukotriene B4 1 μM",97.9%
same,IC50,"[7]; Cavia porcellus, HUVEC, leukotriene B4 1 μM, read-out: concentration necessary for 50% inhibition (IC50 values, μM) of adhesion",~0.2 µM
same,Cell adhesion (absorbance at 520 nm),"[7]; Compound A 0.01 μM, leukotriene B4 1 μM",0.222 absorbance at 520 nm
same,Cell adhesion (absorbance at 520 nm),"[7]; Compound A 0.1 μM, leukotriene B4 1 μM",0.169 absorbance at 520 nm
same,Cell adhesion (absorbance at 520 nm),"[7]; Compound A 1 μM, leukotriene B4 1 μM",0.080 absorbance at 520 nm
same,Cell adhesion (absorbance at 520 nm),"[7]; Compound A 10 μM, leukotriene B4 1 μM",0.077 absorbance at 520 nm
same,Inhibition of ear edema (in words),[8]; oral administration,inhibited ear edema in mice in a dose-dependent manner
same,"Ear edema (right ear-left ear), mean ± S.D.",[8]; oral 10 mg/kg/day,16.0 ± 0.7 mg
same,"Ear edema (right ear-left ear), mean ± S.D.",[8]; oral 30 mg/kg/day,15.4 ± 0.5 mg
same,"Ear edema (right ear-left ear), mean ± S.D.",[8]; oral 100 mg/kg/day,14.4 ± 0.5 mg
"COc1ccccc1NC(=O)NC1N=C(c2ccc(Cl)cc2)c2c(sc(C)c2C)-n2c(C)nnc21 (single isomer, unassigned; (-)) [Compound B, (-)-N-(4-(4-chlorophenyl)-2,3,9-trimethyl-6H-thieno[3,2-f][1,2,4]triazolo[4,3-a][1,4]diazepin-6-yl)-N'-(2-methoxyphenyl)urea]",IC50,[6],63 nM
